Assay results published in paper PMC12372887, “Mechanism and cellular actions of the potent AMPK inhibitor BAY-3827” (Science Advances, 2025).
“And” between values parts separate entries of the source, which are not always exact repeats. Equal entries are not always repeated. Where two headings read alike, the source gives them in different places.

Columns and labels:
[1] = tested on: AMPKα1α2−/− DKO primary hepatocytes; experiment: Lipogenesis assay ([14C]-acetate incorporation into fatty acids); assay type: cell-based, mouse
Method: Mouse hepatocytes were isolated by collagenase perfusion as previously described ([47]). Hepatocytes were seeded in medium Eagle-199 (MEM-199) (#41150, Thermo Fisher Scientific) containing penicillin G (100 U/ml), streptomycin (100 μg/ml), and 10% (v/v) fetal bovine serum (FBS). Hepatocytes were left for attachment (3 to 4 hours) and serum-starved overnight at 37°C with 5% CO2 in MEM-199 supplemented with penicillin G (100 U/ml), streptomycin (100 μg/ml), 10 nM insulin, and 100 nM dexamethasone. […] Cells were then harvested in 0.5 ml of phosphate-buffered saline (PBS), transferred into 1 ml of 40% KOH and 2 ml of methanol followed by 1-hour incubation at 80°C. Lipids were […] by acidifying the samples in 37% HCl and extracted with petroleum ether. Extracts were allowed to evaporate to dryness and then dissolved in Ultima Gold scintillation fluid for determination of [^14C]-acetate incorporation into lipids.

[2] = tested on: AMPKα1α2+/+ (control) primary hepatocytes; experiment: RNA-seq transcriptome analysis of primary hepatocytes; assay type: cell-based, mouse
Method: Primary hepatocytes were pretreated for 15 min with BAY-3827 5 μM at 37°C in MEM-199 supplemented with penicillin G (100 U/ml), streptomycin ([…]), and 100 nM dexamethasone followed by addition of MK-8722 10 μM treatment. Six hours posttreatment, the cells were washed twice with room-temperature PBS. RNA was isolated using QIAwave RNAeasy kit (catalog no. 74104) with on-column deoxyribonuclease (DNAse) treatment using Qiagen RNase-free DNase set (catalog no. 79256) following the manufacturer’s protocol. Messenger RNA-seq was performed by the Single-Cell Omics platform at the Novo Nordisk Foundation Center for Basic Metabolic Research. Libraries were prepared using the Universal Plus mRNA-seq protocol (Tecan) as recommended by the manufacturer. Libraries were quantified with NuQuant using the CLARIOstar Plate Reader (BMG Labtech), quality checked using a TapeStation instrument (Agilent Technologies), and subjected to 52–base pair paired-end sequencing on a NovaSeq 6000 (Illumina). The sequencing analysis pipeline nf-core ([69]) was used, with alignment and quantification selection of STAR and Salmon, and mouse GRCm38 set as the reference genome. Unique molecular identifier (UMI)-based deduplication was performed using UMI tools, and sorting and index alignments were completed with SAMtools as part of the pipeline. Differential expression analysis was carried out using the R package edgeR ([70]) and a batch-effect removal was performed in limma ([71]) to account for the variability induced by two mice (291 + 295) from which cells with the same treatments had been pooled to obtain the required cell confluence. Venn diagrams were produced using the R package ggvenn ([72]). […] Heatmaps of log2 counts per million normalized counts were produced using R package pheatmap ([73]). GO enrichment analysis was performed using the R package clusterProfiler version 4.6.2 ([74]) setting FDR < 0.05 with reference organism specified as mouse, pAdjustMethod was set to BH, and ontology category set to biological process, with a qvalueCutoff of 0.05. Visualization analyses were conducted in RStudio version 4.2.0 ([75]).

[3] = tested on: AMPK; parameters: method as in PMID 33492659; conditions: 2 μM AMP, cited from earlier work

CCc1ccccc1C(=O)Nc1n[nH]c2c(C)c(F)c(C3C(C#N)=C(C)N(C)C(C)=C3C#N)cc12 [BAY-3827, N-[5-(3,5-dicyano-1,2,6-trimethyl-4H-pyridin-4-yl)-6-fluoro-7-methyl-1H-indazol-3-yl]-2-ethylbenzamide]
effect on lipogenesis [1]: no effect | LogFC ADORA2B ([2]; 5 μM + MK-8722 versus MK-8722): −1.3062 | LogFC AVPR1A ([2]; 5 μM + MK-8722 versus MK-8722): −1.708 | LogFC EHHADH ([2]; 5 μM + MK-8722 versus MK-8722): −1.5955 | LogFC HAL ([2]; 5 μM + MK-8722 versus MK-8722): −1.348 | LogFC HMGCR ([2]; 5 μM + MK-8722 versus MK-8722): −0.1621 | LogFC HPGD ([2]; 5 μM + MK-8722 versus MK-8722): −1.745 | LogFC LIPE ([2]; 5 μM + MK-8722 versus MK-8722): −0.2816 | LogFC LPIN2 ([2]; 5 μM + MK-8722 versus MK-8722): −0.5277 | LogFC PFKFB2 ([2]; 5 μM + MK-8722 versus MK-8722): −0.5421 | LogFC PLIN5 ([2]; 5 μM + MK-8722 versus MK-8722): −1.3 | LogFC SP1 ([2]; 5 μM + MK-8722 versus MK-8722): −0.4397 | LogFC TBC1D15 ([2]; 5 μM + MK-8722 versus MK-8722): −0.4895 | LogFC TBC1D17 ([2]; 5 μM + MK-8722 versus MK-8722): −0.5598 | MK-8722–stimulated AMPK-dependent genes down-regulated ([2]; 5 μM + MK-8722 versus MK-8722): ~ 30% and 30.1% | logFC CALCOCO1 (RSK2 gene) ([2]; 5 μM + MK-8722 versus MK-8722): -0.7893 | logFC CENPE (RSK1 gene) ([2]; 5 μM + MK-8722 versus MK-8722): -1.28 | logFC CENPI (RSK1 gene) ([2]; 5 μM + MK-8722 versus MK-8722): -0.6534 | logFC CENPW (RSK1 gene) ([2]; 5 μM + MK-8722 versus MK-8722): -0.4735 | logFC DSN1 (RSK1 gene) ([2]; 5 μM + MK-8722 versus MK-8722): -0.789 | logFC FN1 (RSK1 gene) ([2]; 5 μM + MK-8722 versus MK-8722): -0.2178 | logFC MASTL (RSK1 gene) ([2]; 5 μM + MK-8722 versus MK-8722): -0.8494 | logFC NEK2 (RSK1 gene) ([2]; 5 μM + MK-8722 versus MK-8722): -1.199 | logFC SPC25 (RSK1 gene) ([2]; 5 μM + MK-8722 versus MK-8722): -0.6826 | logFC STAT5B ([2]; 5 μM + MK-8722 versus MK-8722): -0.6006 | differentially expressed genes that are down-regulated ([2]; 5 μM + MK-8722 versus MK-8722, 2511 significant genes): 61.2% | PPARGC1A gene counts ([2]; 5 μM + MK-8722 versus MK-8722 alone): significantly reduced | IC50 ([3]; high (2 mM) ATP): 15 nM | IC50 ([3]; low (10 μM) ATP): 1.4 nM
